Measured values as given in patent publication US20200368247A1, “CENICRIVIROC FOR THE TREATMENT OF FIBROSIS” (Tobira Therapeutics, Inc., priority 2014, published 2020).

Columns and labels:
[1] = Description: (§1) Subjects with a history of HIV-2, hepatitis B and/or C, cirrhosis of the liver or any known active or chronic active liver disease were excluded from the study.
Most AEs were mild or moderate (Grade 1 or Grade 2). […] None of the Grade ≥3 AEs (preferred terms) were reported in more than 1 subject. Table 28 provides an overview of deaths, SAES, AEs, AEs by severity, AEs related to study medication, and AE leading to discontinuation.

[2] = Study 202 ECG abnormalities; type: in vivo, human; conditions: All CVC (N = 115); EFV (N = 28), through Week 48
HIV-1 = assay: Study 202 Phase 2b, virologic response (HIV-1 RNA <50 copies/mL, FDA Snapshot), with FTC/TDF; conditions: for subjects with virologic success (HIV-1 RNA <50 copies/mL): EFV
Description: as §1
The primary efficacy endpoint was virologic response at Week 24, defined as HIV-1 RNA <50 copies/mL using the FDA Snapshot Algorithm.

O=C1Nc2ccc(Cl)cc2[C@@](C#CC2CC2)(C(F)(F)F)O1 [EFV, efavirenz, reference compound]
Deaths ([1]; All CVC (N = 115), EFV (N = 28)): 0 n
SAE: Suicidal ideation ([1]; All CVC (N = 115), EFV (N = 28), through Week 48): 1 n
Grade 3 or 4 AE: Suicidal ideation ([1]; All CVC (N = 115), EFV (N = 28; Grade 4 event)): 1 n
AE leading to discontinuation: Abnormal dreams ([1]; human, in vivo, 48 week): 1 n
AE leading to discontinuation: Aggression ([1]; human, in vivo, 48 week): 0 n
AE leading to discontinuation: Anxiety ([1]; human, in vivo, 48 week): 1 n
AE leading to discontinuation: Depression ([1]; human, in vivo, 48 week): 1 n
AE leading to discontinuation: Dermatitis allergic ([1]; human, in vivo, 48 week): 1 n
AE leading to discontinuation: Ear and labyrinth disorders ([1]; human, in vivo, 48 week): 1 n
AE leading to discontinuation: Insomnia ([1]; human, in vivo, 48 week): 3 n
AE leading to discontinuation: Psychiatric disorders ([1]; human, in vivo, 48 week): 3 n
AE leading to discontinuation: Rash ([1]; human, in vivo, 48 week): 1 n
AE leading to discontinuation: Skin and subcutaneous tissue disorders ([1]; human, in vivo, 48 week): 2 n
AE leading to discontinuation: Tachyphrenia ([1]; human, in vivo, 48 week): 1 n
AE leading to discontinuation: Thinking abnormal ([1]; human, in vivo, 48 week): 0 n
AE leading to discontinuation: Tinnitus ([1]; human, in vivo, 48 week): 1 n
Depression, % ([1]; human, in vivo, 48 week): (11%)
Diarrhoea, % ([1]; human, in vivo, 48 week): (11%)
Fatigue, % ([1]; human, in vivo, 48 week): (4%)
Nausea, % ([1]; human, in vivo, 48 week): (21%)
Rash, % ([1]; human, in vivo, 48 week): (18%)
Subjects with AEs leading to discontinuation of study medication ([1]; human, in vivo, 48 week): 6 n
Subjects with AEs related to study medication ([1]; human, in vivo, 48 week): 20 n
Subjects with AEs, by worst grade severity: Grade 1 ([1]; human, in vivo, 48 week): 10 n
Subjects with AEs, by worst grade severity: Grade 2 ([1]; human, in vivo, 48 week): 13 n
Subjects with AEs, by worst grade severity: Grade 3 ([1]; human, in vivo, 48 week): 3 n
Subjects with AEs, by worst grade severity: Grade 4 ([1]; human, in vivo, 48 week): 0 n
Syphilis, % ([1]; human, in vivo, 48 week): (11%)
Upper respiratory tract infection, % ([1]; human, in vivo, 48 week): (7%)
AE leading to discontinuation: Disturbance in attention ([1]; human, in vivo, 48 weeks): 1 n
AE leading to discontinuation: Dizziness ([1]; human, in vivo, 48 weeks): 2 n
AE leading to discontinuation: Eye disorders ([1]; human, in vivo, 48 weeks): 1 n
AE leading to discontinuation: Gastrointestinal disorders ([1]; human, in vivo, 48 weeks): 1 n
AE leading to discontinuation: General disorders and administration site conditions ([1]; human, in vivo, 48 weeks): 0 n
AE leading to discontinuation: Hypoaesthesia ([1]; human, in vivo, 48 weeks): 1 n
AE leading to discontinuation: Malaise ([1]; human, in vivo, 48 weeks): 0 n
AE leading to discontinuation: Musculoskeletal and connective tissue disorders ([1]; human, in vivo, 48 weeks): 1 n
AE leading to discontinuation: Musculoskeletal discomfort ([1]; human, in vivo, 48 weeks): 1 n
AE leading to discontinuation: Nausea ([1]; human, in vivo, 48 weeks): 1 n
AE leading to discontinuation: Nervous system disorders ([1]; human, in vivo, 48 weeks): 4 n
AE leading to discontinuation: Photophobia ([1]; human, in vivo, 48 weeks): 1 n
AEs leading to discontinuation of study medication, % ([1]; human, in vivo, 48 weeks): 21%
AEs leading to discontinuation of study medication, subjects ([1]; human, in vivo, 48 weeks): 6 subjects
Abnormal dreams, % ([1]; human, in vivo, 48 weeks): (21%)
Any AE leading to discontinuation of study drug ([1]; human, in vivo, 48 weeks): 6 n
Any Grade 3 AE ([1]; human, in vivo, 48 weeks): 3 n
Any Grade 4 AE ([1]; human, in vivo, 48 weeks): 1 n
Any SAE ([1]; human, in vivo, 48 weeks): 1 n
Dizziness, % ([1]; human, in vivo, 48 weeks): (29%)
Grade 3 or 4 AE: Abdominal pain ([1]; human, in vivo, 48 weeks): 0 n
Grade 3 or 4 AE: Blindness unilateral ([1]; human, in vivo, 48 weeks): 0 n
Grade 3 or 4 AE: Blood creatine phosphokinase increased ([1]; human, in vivo, 48 weeks): 0 n
Grade 3 or 4 AE: Cardiac disorders ([1]; human, in vivo, 48 weeks): 0 n
Grade 3 or 4 AE: Corneal infection ([1]; human, in vivo, 48 weeks): 0 n
Grade 3 or 4 AE: Depression ([1]; human, in vivo, 48 weeks): 1 n
Grade 3 or 4 AE: Dermatitis allergic ([1]; human, in vivo, 48 weeks): 1 n
Grade 3 or 4 AE: Ear and labyrinth disorders ([1]; human, in vivo, 48 weeks): 1 n
Grade 3 or 4 AE: Eye disorders ([1]; human, in vivo, 48 weeks): 0 n
Grade 3 or 4 AE: Gastrointestinal disorders ([1]; human, in vivo, 48 weeks): 0 n
Grade 3 or 4 AE: General disorders and administration site conditions ([1]; human, in vivo, 48 weeks): 0 n
Grade 3 or 4 AE: Infections and infestations ([1]; human, in vivo, 48 weeks): 0 n
Grade 3 or 4 AE: Investigations ([1]; human, in vivo, 48 weeks): 1 n
Grade 3 or 4 AE: Palpitations ([1]; human, in vivo, 48 weeks): 0 n
Grade 3 or 4 AE: Psychiatric disorders ([1]; human, in vivo, 48 weeks): 1 n
Grade 3 or 4 AE: Pyrexia ([1]; human, in vivo, 48 weeks): 0 n
Grade 3 or 4 AE: Skin and subcutaneous tissue disorders ([1]; human, in vivo, 48 weeks): 1 n
Grade 3 or 4 AE: Stress ([1]; human, in vivo, 48 weeks): 0 n
Grade 3 or 4 AE: Tinnitus ([1]; human, in vivo, 48 weeks): 1 n
Grade 3 or 4 AE: Weight decreased ([1]; human, in vivo, 48 weeks): 1 n
Insomnia, % ([1]; human, in vivo, 48 weeks): (14%)
Lymphadenopathy, % ([1]; human, in vivo, 48 weeks): (14%)
Nasopharyngitis, % ([1]; human, in vivo, 48 weeks): (4%)
SAE: Blindness unilateral ([1]; human, in vivo, 48 weeks): 0 n
SAE: Corneal infection ([1]; human, in vivo, 48 weeks): 0 n
SAE: Depression ([1]; human, in vivo, 48 weeks): 1 n
SAE: Eye disorders ([1]; human, in vivo, 48 weeks): 0 n
SAE: Gastroenteritis ([1]; human, in vivo, 48 weeks): 0 n
SAE: Infections and infestations ([1]; human, in vivo, 48 weeks): 0 n
SAE: Psychiatric disorders ([1]; human, in vivo, 48 weeks): 1 n
Subjects with serious AEs ([1]; human, in vivo, 48 weeks): 1 n
Subjects with ≥1 AE ([1]; human, in vivo, 48 weeks): 27 n
HR Abnormally high (120 bpm ≤ abnormally high) [2]: 0 n (%)
HR Abnormally low (≤ 50 bpm) [2]: 0 n (%)
PR Abnormally high (210 ms ≤ abnormally high) [2]: 1 (4%) n (%)
QRS Abnormally high (120 ms ≤ abnormally high) [2]: 0 n (%)
QRS Abnormally low (≤ 50 ms) [2]: 0 n (%)
QTcB interval Borderline (450 ms ≤ borderline ≤ 480 ms) [2]: 3 (11%) n (%)
QTcB interval Increase by >30-60 ms [2]: 4 (14%) n (%)
QTcB interval Increase by >60 ms [2]: 0 n (%)
QTcB interval Pathologically prolonged (> 500 ms) [2]: 0 n (%)
QTcB interval Prolonged (480 ms < prolonged ≤ 500 ms) [2]: 0 n (%)
QTcF interval Borderline (450 ms ≤ borderline ≤ 480 ms) [2]: 0 n (%)
QTcF interval Increase by >30-60 ms [2]: 4 (14%) n (%)
QTcF interval Increase by >60 ms [2]: 0 n (%)
QTcF interval Pathologically prolonged (> 500 ms) [2]: 0 n (%)
QTcF interval Prolonged (480 ms < prolonged ≤ 500 ms) [2]: 0 n (%)
subjects who prematurely discontinued the study (HIV-1; EFV arm): 39%
subjects with virologic success (HIV-1 RNA <50 copies/mL) (HIV-1; Week 24): 71%
subjects with virologic success (HIV-1 RNA <50 copies/mL) (HIV-1; Week 48): 50%
